The nature of the experiment: Cytotoxicity against human H460 cells after 48 hrs by MTT assay. The class given is functional, cell-based. The settings on record: NCI-H460, 48 h.

A value given as a limit tells only on which side of the number the result lay.

With `CCC[C@H]1NC(=O)[C@H](C)NC(=O)[C@H](CC(C)C)N(C)C(=O)[C@H](Cc2ccccc2)NC(=O)[C@H](CCSC)NC(=O)[C@@H](Cc2ccccc2)N(C)C(=O)[C@@H](C(C)C)OC(=O)[C@H]1C` [PRECARRIEBOWMIDE], the IC50 is above 10 µM.

The record behind these values is ChEMBL document CHEMBL2417360, “Parguerene and precarriebowmide, two classes of lipopeptides from the marine cyanobacterium Moorea producens” (J Nat Prod, 2013).
